{
  "source": "patent US8912121B2",
  "about": "“Herbicidal compositions comprising 4-amino-3-chloro-5-fluoro-6-(4-chloro-2-fluoro-3-methoxyphenyl)pyridine-2-carboxylic acid or a derivative thereof and certain PS II inhibitors” (Dow Agrosciences LLC, priority 2012, dated 2014)",
  "system": "LEFCH (Leptochloa chinensis, Chinese sprangletop)",
  "assay": "Postemergence foliar-applied mixtures, direct seeded rice, greenhouse",
  "assay_type": "in vivo, Leptochloa chinensis (L.) Nees",
  "settings": "22 DAA",
  "source_text": "Seeds or nutlets of the desired test plant species were planted in a soil matrix prepared by mixing a loam or sandy loam soil (e.g., 28.6 percent silt, 18.8 percent clay, and 52.6 percent sand, with a pH of about 5.8 and an organic matter content of about 1.8 percent) and calcareous grit in an 80 to 20 ratio. The soil matrix was contained in plastic pots with a volume of 1 quart and a surface area of 83.6 square centimeters (cm^2). When required to ensure good germination and healthy plants, a fungicide treatment and/or other chemical or physical treatment was applied. The plants were grown for 8-22 days in a greenhouse with an approximate 14 h photoperiod which was maintained at about 29° C. during the day and 26° C. during the night. Nutrients (Peters Excel® 15-5-15 5-Ca 2-Mg and iron chelate) were applied in the irrigation solution as needed and water was added on a regular basis. Supplemental lighting was provided with overhead metal halide 1000-Watt lamps as necessary. The plants were employed for testing when they reached the first through fourth true leaf stage. […]\nTreatment requirements were calculated based upon the rates being tested, the concentration of active ingredient or acid equivalent in the formulation, and a 12 mL application volume at a rate of 187 L/ha.\nFor treatments comprised of formulated compounds, measured amounts of compounds were placed individually in 25 mL glass vials and diluted in a volume of 1.25% (v/v) Agri-Dex® crop oil concentrated to obtain 12× stock solutions. […]\nFor treatments comprised of formulated and technical compounds, weighed amounts of the technical materials were placed individually in 25 mL glass vials and dissolved in a volume of 97:3 v/v acetone/DMSO to obtain 12× stock solutions, and measured amounts of the formulated compounds were placed individually in 25 mL glass vials and diluted in a volume of 1.5% (v/v) crop oil concentrate or water to obtain 12× stock solutions. […]",
  "data": [
    {"compound": "COc1c(Cl)ccc(-c2nc(C(=O)OCc3ccccc3)c(Cl)c(N)c2F)c1F", "note": "[Compound A Benzyl Ester, benzyl ester of 4-amino-3-chloro-5-fluoro-6-(4-chloro-2-fluoro-3-methoxy-phenyl)pyridine-2-carboxylic acid]", "values": [
      {"measurement": "Visual Weed Control (%) Obs", "setting": "8 g ae/ha", "result": 35, "unit": "%"},
      {"measurement": "Visual Weed Control (%) Obs", "setting": "16 g ae/ha", "result": 40, "unit": "%"}
    ]}
  ]
}
